# Test results published in PubChem BioAssay AID588548 (Broad Institute, 2011).
# Target: Scavenger receptor class B member 1 (Mus musculus) (UniProt Q61009)
# Assay: inhibition of HDL lipid transfer via mSR-BI – ldlA[mSR-BI] CHO cells, powder samples, set 4, dose response (AID 588548)
# Conditions: DiI-HDL uptake fluorescence, 3 h
# Chain of Scavenger receptor class B member 1 (Mus musculus) (Q61009 whole entry, looked up): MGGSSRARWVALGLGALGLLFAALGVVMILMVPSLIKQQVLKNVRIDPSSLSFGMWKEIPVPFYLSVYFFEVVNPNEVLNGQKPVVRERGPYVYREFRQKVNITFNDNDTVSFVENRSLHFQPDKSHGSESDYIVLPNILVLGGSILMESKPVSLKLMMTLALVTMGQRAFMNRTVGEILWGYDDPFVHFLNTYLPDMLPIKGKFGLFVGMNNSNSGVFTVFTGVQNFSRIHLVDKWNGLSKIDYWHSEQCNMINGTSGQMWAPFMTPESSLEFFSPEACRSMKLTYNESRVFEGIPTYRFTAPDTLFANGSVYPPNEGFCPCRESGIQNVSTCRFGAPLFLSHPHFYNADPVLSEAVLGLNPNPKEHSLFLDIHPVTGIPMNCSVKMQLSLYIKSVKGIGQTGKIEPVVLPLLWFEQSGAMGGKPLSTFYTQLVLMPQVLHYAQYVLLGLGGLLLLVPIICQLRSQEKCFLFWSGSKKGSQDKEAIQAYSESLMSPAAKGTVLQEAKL
row,SMILES,AC50 [nM]
1,CCCN1CCc2cc(-c3csc(NC(=O)c4cc(OC)cc(OC)c4)n3)ccc21,51.7
2,CCCCCCC1CCC/C1=N\NC(N)=S (configuration not stated),< 15
3,CC(C(=O)NC1CCCC1)N(C(=O)Cn1nnc(-c2ccc3c(c2)OCO3)n1)C1CCCCC1 (configuration not stated),< 15
4,CCC(=O)N1CCc2cc(-c3csc(NC(=O)c4cc5cccnc5o4)n3)ccc21,45.3
5,CCC(=O)Nc1ccc(-c2csc(NC(=O)c3cccc(OC)c3)n2)cc1,99.3
6,COc1cc(OC)cc(C(=O)Nc2nc(-c3ccc4c(c3)CCN4C(C)=O)cs2)c1,24.9
7,COc1ccc(-c2nnn(CC(=O)N(CC(=O)NC3CCCC3)C3CCCCC3)n2)cc1OC,< 15
8,CCC(=O)Nc1ccc(-c2csc(N)n2)cc1,8840
9,COCC(=O)N1CCc2cc(-c3csc(NC(=O)c4cc(OC)cc(OC)c4)n3)ccc21,< 15
10,CCC(=O)N1CCc2cc(-c3csc(NC(=O)c4ccco4)n3)ccc21,28.6
11,CCC(=O)N1CCc2cc(-c3csc(NC(=O)c4cc(OC)c(OC)c(OC)c4)n3)ccc21,< 15
12,COc1ccc(-c2cc(CC(=O)N(C3CCCCC3)C(C)C(=O)NC3CCCC3)no2)cc1OC (configuration not stated),28.5
13,COc1ccc(-c2nc(CC(=O)N(C3CCCCC3)C(C)C(=O)NC3CCCC3)cs2)cc1OC (configuration not stated),5260
14,O=C(CN(C(=O)Cn1nnc(-c2ccc3c(c2)OC(F)(F)O3)n1)C1CCCCC1)NC1CCCC1,26
15,COc1cc(OC)cc(C(=O)Nc2nc(-c3ccc4c(c3)CCN4C(=O)OC(C)(C)C)cs2)c1,< 15
16,CCC(=O)N1CCc2cc(-c3csc(/N=C(/OC)c4cc(OC)cc(OC)c4)n3)ccc21,1020

row,SMILES,AC50 [nM]
1,O=C(Nc1nc(-c2ccc3c(c2)CCN3)cs1)c1ccco1,< 15
2,CC(C(=O)NC1CCCC1)N(C(=O)Cn1nnc(-c2ccc3c(c2)OCO3)n1)C1CCOCC1 (configuration not stated),3180
3,CC(C(=O)NC1CCCC1)N(C(=O)Cn1nnc(-c2ccc3c(c2)OC(F)(F)O3)n1)C1CCCCC1 (configuration not stated),63.5
4,CC(C)(C)OC(=O)N1CCc2cc(-c3noc(NC(=O)c4ccco4)n3)ccc21,14600
5,O=C(CN(C(=O)Cn1nnc(-c2ccc(Cl)c(Cl)c2)n1)C1CCCCC1)NC1CCCC1,302
6,CCC(=O)N1CCc2cc(-c3csc(N(C)C(=O)c4cc(OC)cc(OC)c4)n3)ccc21,50
7,CCC(=O)N1CCc2cc(-c3csc(NC(=O)c4cccc(OC(F)(F)F)c4)n3)ccc21,18.5
8,CCNC(=O)N1CCc2cc(-c3csc(NC(=O)c4cc(OC)cc(OC)c4)n3)ccc21,< 15
9,COc1cc(OC)cc(C(=O)Nc2nc(-c3ccc4c(c3)CCN4)cs2)c1,103
10,COc1cc(OC)cc(C(=O)Nc2nc(-c3ccc4c(c3)CCN4C(=O)CN(C)C)cs2)c1,< 15
11,O=C(CN(C(=O)Cn1nnc(-c2ccc3c(c2)OCO3)n1)C1CCCCC1)NC1CCCC1,< 15
12,COc1cc(OC)cc(C(=O)Nc2nc(-c3ccc4[nH]ccc4c3)cs2)c1,50.5
13,COC(=O)N1CCc2cc(-c3csc(NC(=O)c4cc(OC)cc(OC)c4)n3)ccc21,72
14,CCC(=O)N1CCc2cc(-c3csc(NC(=O)c4cc(OC)cc(OC)c4)n3)ccc21,29.5
15,CCC(=O)Nc1ccc(-c2csc(NC(=O)c3ccco3)n2)cc1,1920
16,CC(C(=O)NC1CCCC1)N(C(=O)Cn1nnc(-c2ccc(Cl)c(Cl)c2)n1)C1CCCCC1 (configuration not stated),250
